Measured values taken from patent US12178840B2, “Method and compositions comprising a CT20 peptide” (UNIVERSITY OF CENTRAL FLORIDA RESEARCH FOUNDATION, INC., priority 2014, dated 2024).
Residues, ends and D or L forms follow the SMILES beside them.

Assays:
Format in all cases: cell-based, human
tubulin in MCF-10A cells = experiment: Fixed cell immunofluorescence of tubulin; settings: 24 hours of CT20p treatment
Procedure: Fixed cell immunofluorescence: Cells were seeded on glass coverslips (Fisher) in a 6-well plate at a density of 150,000 cells/well. Cells at 60% confluency were treated with CT20p or left untreated for 24 hours. After CT20p treatment, cells were stained with Mitotracker Red CMXRos (Life Technologies) at a concentration of 200 nM for 30 minutes, before being fixed in ice cold methanol for 10 minutes at −20° C. Cells were then permeabilized in 0.1% Triton X-100 for 10 minutes at 37° C. Samples were blocked in 5% normal goat serum (Santa Cruz) for 30 minutes at 37° C., then incubated with primary antibody α-tubulin (DM1A) (Santa Cruz) for 3 hours at 37° C. Secondary antibody was goat α-mouse IgG-FITC (Santa Cruz) and was applied for 1 hour at room temperature. Coverslips were mounted in UltraCruz mounting media (Santa Cruz), which contains DAPI for nuclear staining. Images were obtained with a Zeiss LSM 710 microscope, using a Zeiss 63× Pan-Apocromat oil immersion lens and Zeiss Zen software. To determine average tubulin levels per cell, the amount of FITC fluorescence intensity per region of interest was divided by the number of cells in the field. At least four images containing between 5 and 12 cells were quantified for each condition. Image analysis was done using Volocity software (Perkin Elmer). […]

MDA-MB-436 cells = experiment: Cellular adhesion assay (fibronectin, crystal violet); settings: 48 hours, varying doses
Procedure: (§1) Cellular adhesion assay: 96-well tissue culture plates were coated with 20 ug/mL fibronectin (Sigma) overnight at 4° C. Cells were then seeded in the plates at a density of 10,000 cells/well. Cells were treated with varying doses of CT20p for 48 hours. Plates were then shaken at 1400 rpm for 15 seconds, washed, and fixed with 10% neutral buffered formalin (Leica). Adhered cells were stained with 5 mg/mL crystal violet (Sigma) and absorbance at 595 nm was read on an EnVision plate reader (Perkin Elmer).
(§2) The effect of CT20p was examined on a panel of cell lines by measuring the impact on cellular adhesion. Metastatic cells vary their adhesion patterns as dictated by their environment (Cheung and Ewald 2014), and targeting adhesion ability could mitigate metastasis. To examine the cell lines, plates were coated with fibronectin to provide an appropriate substrate for adhesion, and cells were treated with CT20p for 48 hours at varying doses (FIG. 5A). […] Treating at this dose would allow us to observe the molecular effects of the peptide prior to cell death.

MDA-MB-231 cells = experiment: as above; settings: 48 hours, varying doses
Procedure: as §1, §2

BT-549 cells = experiment: as above; settings: 48 hours, varying doses
Procedure: as §1, §2

MCF-10A cells = experiment: as above
Procedure: as §1, §2

[1] = test system: tubulin in MDA-MB-231 cells; experiment: Fixed cell immunofluorescence of tubulin; settings: 24 hours of CT20p treatment
Procedure: Fixed cell immunofluorescence: Cells were seeded on glass coverslips (Fisher) in a 6-well plate at a density of 150,000 cells/well. Cells at 60% confluency were treated with CT20p or left untreated for 24 hours. After CT20p treatment, cells were stained with Mitotracker Red CMXRos (Life Technologies) at a concentration of 200 nM for 30 minutes, before being fixed in ice cold methanol for 10 minutes at −20° C. Cells were then permeabilized in 0.1% Triton X-100 for 10 minutes at 37° C. Samples were blocked in 5% normal goat serum (Santa Cruz) for 30 minutes at 37° C., then incubated with primary antibody α-tubulin (DM1A) (Santa Cruz) for 3 hours at 37° C. Secondary antibody was goat α-mouse IgG-FITC (Santa Cruz) and was applied for 1 hour at room temperature. Coverslips were mounted in UltraCruz mounting media (Santa Cruz), which contains DAPI for nuclear staining. Images were obtained with a Zeiss LSM 710 microscope, using a Zeiss 63× Pan-Apocromat oil immersion lens and Zeiss Zen software. To determine average tubulin levels per cell, the amount of FITC fluorescence intensity per region of interest was divided by the number of cells in the field. At least four images containing between 5 and 12 cells were quantified for each condition. Image analysis was done using Volocity software (Perkin Elmer).
CT20p's effect on the other main client of CCT, tubulin, was also examined. […]

CC[C@H](C)[C@H](NC(=O)[C@@H](NC(=O)[C@H](CC(C)C)NC(=O)[C@H](CO)NC(=O)[C@H](C)NC(=O)[C@@H](NC(=O)[C@H](CC(C)C)NC(=O)[C@@H](NC(=O)CNC(=O)[C@H](C)NC(=O)[C@@H](NC(=O)[C@H](Cc1ccccc1)NC(=O)[C@@H](NC(=O)[C@@H](NC(=O)[C@@H](NC(C)=O)C(C)C)[C@@H](C)O)[C@@H](C)CC)C(C)C)C(C)C)[C@@H](C)O)[C@@H](C)O)C(=O)N[C@@H](Cc1c[nH]c2ccccc12)C(=O)N[C@@H](CCCCN)C(=O)N[C@@H](CCCCN)C(=O)N[C@@H](CCSC)C(=O)NCC(N)=O [CT20] (Ac-VTIFVAGVLTASLTIWKKMG-NH2)
Amount of tubulin per cell (tubulin in MCF-10A cells): no significant loss | Effect on cellular adhesion (MDA-MB-436 cells): dose-dependent loss of adhesion | Effect on cellular adhesion (MDA-MB-231 cells): dose-dependent loss of adhesion | Effect on cellular adhesion (BT-549 cells): particularly unaffected | Detachment of cells (MCF-10A cells; 75 μg/mL of CT20p): does not cause detachment | Effect on cellular adhesion (MCF-10A cells; 48 hours, varying doses, fibronectin): particularly unaffected | Amount of tubulin per cell [1]: significant decrease
